# Source: patent US11572341B2, “Biguanide compound and use thereof” (ImmunoMet Therapeutics Inc., priority 2014, dated 2023)
# Structures can show the parent of a compound that is named as a salt. Where two headings read alike, the source gives them in different places.
# Assays:
# A549 cell line = experiment: Oxygen consumption rate (OCR) and extracellular acidification rate (ECAR) in A549 cells; format: cell-based; conditions: Homo sapiens, A549, 3 hrs, control group set at 0%, phenformin set at 100%
# Description: A549 cell line (purchased from ATCC-American Type Culture Collection (ATCC)), a lung cancer cell line, is treated with the compounds and OCR and ECAR of the cells are measured and thereby those compounds which show an improved effect compared to phenformin are selected.
# The cells are plated on an XF96 cell culture plate containing RPMI1640 medium at a concentration of 5×10^3 cells and cultured in 37° C., 5% CO2 conditions to allow them to be attached thereto.
# After 24 hours, the cells are treated with the drug at a concentration of 10 μM for 2 hours, the existing medium is washed with a medium for XF analysis (15 mM D-glucose, 15 mM sodium pyruvate, 4 mM L-glutamine, pH 7.4) to remove the medium using a Prep station and treated again with the drugs, and cultured in 37° C., non-CO2 conditions in the Prep station for 1 hour. While culturing in the Prep station, a sensor cartridge is calibrated for 1 hour and added into a plate containing cells, and OCR and ECAR analyses are performed.
# The measured values of OCR and ECAR of the compounds are calculated with reference to the measured values of OCR and ECAR of the control group which is set at 0% and the values of OCR and ECAR of phenformin, which was used as the reference drug, set at 100%, and those compounds which show an improved effect compared to those of phenformin are selected.
# From the primarily-selected compounds, those compounds which show an improved effect are treated at various concentrations (0 μM, 0.5 μM, 1 μM, 5 μM, 10 μM, and 20 μM) and their reactivity according to concentration was obtained.
# HCT116 cells = experiment: Inhibitory effect against cancer cell proliferation (MTT); format: cell-based, human; conditions: Homo sapiens, read-out: IC50 (uM) @ HCT116
# Description: The formazane crystals thus formed were dissolved using dimethyl sulfoxide (DMSO) and absorbance of the solution was measured at 560 nm. After culturing for 48 hours, […] synthesized in Examples was indicated as cell viability (%) according to each treated concentration.
# AMPKa [pT172] = experiment: AMPKa activation [pT172] in MCF7 cell; format: cell-based
"IC50 (HCT116 cells; HCT-116, HCT116, MTT, 48 hours) [µM]",SMILES,"Emax at 10 µM (A549 cell line; read-out: ECAR (A549, 3 hrs)) [%]","Emax at 10 µM (A549 cell line; read-out: OCR (A549, 3 hrs)) [%]",AMPKa activation [pT172] (Unit/ml) @ MCF7 cell (AMPKa [pT172]; 50 uM),AMPKa activation [pT172] (Unit/ml) @ MCF7 cell (AMPKa [pT172]; 5 uM) [Unit/ml],AMPKa activation [pT172] (Unit/ml) @ MCF7 cell (AMPKa [pT172]; 10 uM) [Unit/ml],"IC50 (HCT116 cells; HCT-116, 48 h) [µM]"
–,"C/N=C(/NC(=N)N1CCCC1)N(C)c1ccc(OC(F)(F)F)cc1 [Example 106, N1-methyl-N1-(4-trifluoromethoxy)phenyl-N2-methyl-N5-pyrrolidine Biguanide Hydrochloride]",-7.5,-6.6,–,–,–,–
–,"N=C(N)N/C(=N/CCc1ccccc1)NCCc1cccs1 [Example 103, N1 (2-thiophen-2-yl)ethyl-N2-phenethyl Biguanide Hydrochloride]",-43,36,–,–,–,–
–,"N=C(N)NC(=N)NCc1ccco1 [Example 144, N1-(furan-2-yl)methyl Biguanide Hydrochloride]",7,47,–,–,–,–
–,"CC1CC(=O)N=C(NC(=N)N)N1.Cl (stereo not drawn) [Example 164, Hydrochloride]",9,-1,–,–,–,–
> 100,"Cl.N=C(N)NC(=N)Nc1ccc(N2CCOCC2)cc1 [Example 122, N1-(4-morpholin-4-yl)phenyl Biguanide Hydrochloride]",15.5,13.3,5.9 Unit/ml,–,–,–
–,"CN(C)C(=N)NC(=N)N(C)c1ccc(OC(F)(F)F)cc1 [Example 85, N1,N1-dimethyl-N5-methyl-N5-(4-trifluoromethoxy)phenyl Biguanide Hydrochloride]",31,-6,–,–,–,–
–,"N=C(N)NC(=N)NCc1ccc(O)cc1F [Example 146, N1-(2-fluoro-4-hydroxy)benzyl Biguanide Hydrochloride]",28,109,–,–,–,–
–,"N=C(N)N/C(=N/CCc1ccc2c(c1)OCO2)NCCc1cccs1 [Example 104, N1-2-thiophen-2-)ethyl-N2-2-benzo[d][1,3]dioxol-5-yl)ethyl Biguanide Hydrochloride]",-8.3,31.3,–,–,–,–
–,"CC(C)NC(=N)NC(=N)NCc1cccnc1.Cl [Example 6, N1-isopropyl-N5-1-(pyridin-3-yl)methyl Biguanide Hydrochloride]",9.3,16.7,4.8 Unit/ml,–,–,–
> 100,"Cl.N=C(NCCc1ccccc1Cl)NC(=N)N1CCCCC1 [Example 14, N1-piperidin-N5-2-chloro)phenethyl Biguanide Hydrochloride]",63,-7,–,–,–,–
72.7,"Cl.N=C(N)NC(=N)Nc1ccccc1 [Example 113, N1-phenyl Biguanide Hydrochloride]",-24,-3,28.6 Unit/ml,9.9,10.1,–
–,"N=C(N)N/C(=N/C1CCCC1)NCc1ccc2c(c1)OCO2 [Example 107, N1-(benzo[d][1,3]dioxol-5-yl)methyl-N2-cyclopentyl Biguanide Hydrochloride]",-8.9,-4.4,–,–,–,–
–,"C/N=C(/NC(=N)N1CCCC1)Nc1ccc(OC(F)(F)F)cc1 [Example 105, N1-(4-trifluoromethoxy)phenyl-N2-methyl-N5-pyrrolidine Biguanide Hydrochloride]",-25.5,25.1,–,–,–,–
–,"N=C(N)NC(=N)NCCCc1ccc(F)cc1 [Example 147, N1-(4-fluoro)phenylpropyl Biguanide Hydrochloride]",126,74,–,–,–,–
–,"COc1ccc(CCCNC(=N)NC(=N)N)cc1 [Example 148, N1-(4-methoxy)phenylpropyl Biguanide Hydrochloride]",160,1,–,–,–,–
–,"CN(C(=N)NC(=N)N1CCCC1)c1ccc(OC(F)(F)F)cc1 [Example 82, N1-pyrrolidin-N5-methyl-N5-(4-trifluoromethoxy)phenyl Biguanide Hydrochloride]",6.9,7.7,–,–,–,–

"IC50 (HCT116 cells; HCT-116, HCT116, MTT, 48 hours) [µM]",SMILES,"Emax at 10 µM (A549 cell line; read-out: ECAR (A549, 3 hrs)) [%]","Emax at 10 µM (A549 cell line; read-out: OCR (A549, 3 hrs)) [%]",AMPKa activation [pT172] (Unit/ml) @ MCF7 cell (AMPKa [pT172]; 50 uM),AMPKa activation [pT172] (Unit/ml) @ MCF7 cell (AMPKa [pT172]; 5 uM) [Unit/ml],AMPKa activation [pT172] (Unit/ml) @ MCF7 cell (AMPKa [pT172]; 10 uM) [Unit/ml],"IC50 (HCT116 cells; HCT-116, 48 h) [µM]"
–,"N=C(N)NC(=N)NCc1cccc(I)c1 [Example 150, N1-(3-iodo)benzyl Biguanide Hydrochloride]",125,105,–,–,–,–
–,"N=C(NC(=N)N1CCCC1)Nc1c(F)cccc1F [Example 80, N1-pyrrolidin-N5-(2,6-difluoro)phenyl Biguanide Hydrochloride]",1,3,–,–,–,–
12.7,"CCOC1CCN(C(=N)NC(=N)Nc2ccc(C(F)(F)F)cc2)CC1.Cl [Example 23, N1-(4-ethoxy)piperidin-N5-(4-trifluoromethyl)phenyl Biguanide Hydrochloride]",–,–,cell death,7.7,6.6,–
> 100,"CCCN(CCC)C(=N)NC(=N)N1CCCCC1.Cl [Example 8, N1,N1-dipropyl-N5-piperidine Biguanide Hydrochloride]",–,–,19.3 Unit/ml,10.8,12.5,–
> 100,"CCOC1CCN(C(=N)NC(=N)N2CCCC(C)C2)CC1 (stereo not drawn) [Example 46, N1-(3-methyl)piperidin-N5-(4-ethos)piperidine Biguanide Hydrochloride]",–,–,5.4 Unit/ml,3.8,3.6,–
> 100,"Cl.N=C(N)NC(=N)N1CCCC1 [Example 126, N1-pyrrolidine Biguanide Hydrochloride]",–,–,10.7 Unit/ml,6.1,6.4,–
> 100,"CC1CCCN(C(=N)NC(=N)NC2CCCC2)C1.Cl (stereo not drawn) [Example 44, N1-(3-methyl)piperidin-N5-cyclopentyl Biguanide Hydrochloride]",–,–,14.8 Unit/ml,4.5,5.2,–
> 100,"Cl.N=C(NCCc1ccc(Cl)cc1)NC(=N)N1CCCCC1 [Example 13, N1-piperidin-N5-4-chloro)phenethyl Biguanide Hydrochloride]",61,-20,–,–,–,–
> 100,"CC(=O)c1ccc(NC(=N)NC(=N)N)cc1.Cl [Example 117, N1-(4-acetyl)phenyl Biguanide Hydrochloride]",–,–,6.2 Unit/ml,–,–,–
130,"CC1CCCN(C(=N)NC(=N)Nc2cnccn2)C1.Cl (stereo not drawn) [Example 47, N1-(3-methyl)piperidin-N5-pyrazin-2-yl Biguanide Hydrochloride]",–,–,5.3 Unit/ml,2.8,3.8,–
43.2,"CN1CCN(C(=N)NC(=N)Nc2cccc(C(F)(F)F)c2)CC1.Cl [Example 21, N1-(4-methyl)piperazin-N5-(3-trifluoromethyl)phenyl Biguanide Hydrochloride]",–,–,14.8 Unit/ml,6.0,5.8,–
–,"COc1ccc(CNC(=N)NC(=N)N)cc1 [Example 131, N1-(4-methoxy)benzyl Biguanide Hydrochloride]",–,–,17.6 Unit/ml,–,–,> 100
> 100,"COc1ccc(NC(=N)NC(=N)N2CCCCC2)cc1.Cl [Example 73, N1-piperidin-N5-(4-methoxy)phenyl Biguanide Hydrochloride]",–,–,9.1 Unit/ml,3.9,4.5,–
2.3,"CC1CCN(C(=N)NC(=N)Nc2ccc(Cl)c(C(F)(F)F)c2)CC1.Cl [Example 58, N1-(4-methyl)piperidin-N5-(3-trifluoromethyl-4-chloro)phenyl Biguanide Hydrochloride]",–,–,cell death,2.5,5.0,–
> 100,"Cl.N=C(N)NC(=N)NCc1ccc(Cl)cc1 [Example 129, N1-(4-chloro)benzyl Biguanide Hydrochloride]",–,–,11.4 Unit/ml,9.2,7.0,–
–,"N=C(N)NC(=N)NCc1ccccc1I [Example 149, N1-(2-iodo)benzyl Biguanide Hydrochloride]",36,20,–,–,–,–
